Experimental data as given in patent publication US20240124412A1, “IKAROS ZINC FINGER FAMILY DEGRADERS AND USES THEREOF” (Gilead Sciences, Inc., priority 2021, published 2024).
Where two headings read alike, the source gives them in different places.

How the values were obtained:
[1] = target: T1, IKZF1 (Homo sapiens, UniProt Q13422+Q96SW2); experiment: HiBiT protein tagging assay, in vitro IKZF1 degradation (HEK293); format: cell-based; conditions: for Dmax: read-out: IKZF1 Dmax (maximum degradation at the highest concentration tested)
T1 construct: expressed in transfected cells
T1 sequence (Q13422 whole entry): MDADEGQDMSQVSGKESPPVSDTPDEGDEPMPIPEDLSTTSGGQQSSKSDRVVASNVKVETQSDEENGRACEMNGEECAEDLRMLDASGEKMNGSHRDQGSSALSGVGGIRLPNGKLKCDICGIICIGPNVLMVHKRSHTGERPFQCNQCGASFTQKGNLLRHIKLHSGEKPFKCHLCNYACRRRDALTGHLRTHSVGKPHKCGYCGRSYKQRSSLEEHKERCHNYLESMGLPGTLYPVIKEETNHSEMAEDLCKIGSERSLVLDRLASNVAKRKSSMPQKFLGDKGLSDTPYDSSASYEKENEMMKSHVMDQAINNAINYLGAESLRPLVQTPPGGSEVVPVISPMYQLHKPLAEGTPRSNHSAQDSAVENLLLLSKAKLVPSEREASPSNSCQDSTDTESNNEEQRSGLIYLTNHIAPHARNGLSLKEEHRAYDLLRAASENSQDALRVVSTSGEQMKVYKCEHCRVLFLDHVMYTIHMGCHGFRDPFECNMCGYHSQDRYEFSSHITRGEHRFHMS
T1 sequence (Q96SW2 whole entry): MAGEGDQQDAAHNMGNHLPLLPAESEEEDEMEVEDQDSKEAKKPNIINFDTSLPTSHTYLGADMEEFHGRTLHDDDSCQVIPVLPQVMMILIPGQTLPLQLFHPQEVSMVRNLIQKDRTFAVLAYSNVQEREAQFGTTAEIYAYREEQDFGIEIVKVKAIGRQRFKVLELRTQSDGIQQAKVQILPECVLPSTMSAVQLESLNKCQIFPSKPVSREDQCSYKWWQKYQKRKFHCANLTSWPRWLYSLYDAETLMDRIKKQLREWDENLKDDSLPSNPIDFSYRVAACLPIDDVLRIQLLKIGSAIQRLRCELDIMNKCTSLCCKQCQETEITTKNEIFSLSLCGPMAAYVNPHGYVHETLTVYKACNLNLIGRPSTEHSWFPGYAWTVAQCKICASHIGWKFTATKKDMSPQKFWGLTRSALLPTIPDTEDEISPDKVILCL
T1 sequence (Q16531 whole entry partner): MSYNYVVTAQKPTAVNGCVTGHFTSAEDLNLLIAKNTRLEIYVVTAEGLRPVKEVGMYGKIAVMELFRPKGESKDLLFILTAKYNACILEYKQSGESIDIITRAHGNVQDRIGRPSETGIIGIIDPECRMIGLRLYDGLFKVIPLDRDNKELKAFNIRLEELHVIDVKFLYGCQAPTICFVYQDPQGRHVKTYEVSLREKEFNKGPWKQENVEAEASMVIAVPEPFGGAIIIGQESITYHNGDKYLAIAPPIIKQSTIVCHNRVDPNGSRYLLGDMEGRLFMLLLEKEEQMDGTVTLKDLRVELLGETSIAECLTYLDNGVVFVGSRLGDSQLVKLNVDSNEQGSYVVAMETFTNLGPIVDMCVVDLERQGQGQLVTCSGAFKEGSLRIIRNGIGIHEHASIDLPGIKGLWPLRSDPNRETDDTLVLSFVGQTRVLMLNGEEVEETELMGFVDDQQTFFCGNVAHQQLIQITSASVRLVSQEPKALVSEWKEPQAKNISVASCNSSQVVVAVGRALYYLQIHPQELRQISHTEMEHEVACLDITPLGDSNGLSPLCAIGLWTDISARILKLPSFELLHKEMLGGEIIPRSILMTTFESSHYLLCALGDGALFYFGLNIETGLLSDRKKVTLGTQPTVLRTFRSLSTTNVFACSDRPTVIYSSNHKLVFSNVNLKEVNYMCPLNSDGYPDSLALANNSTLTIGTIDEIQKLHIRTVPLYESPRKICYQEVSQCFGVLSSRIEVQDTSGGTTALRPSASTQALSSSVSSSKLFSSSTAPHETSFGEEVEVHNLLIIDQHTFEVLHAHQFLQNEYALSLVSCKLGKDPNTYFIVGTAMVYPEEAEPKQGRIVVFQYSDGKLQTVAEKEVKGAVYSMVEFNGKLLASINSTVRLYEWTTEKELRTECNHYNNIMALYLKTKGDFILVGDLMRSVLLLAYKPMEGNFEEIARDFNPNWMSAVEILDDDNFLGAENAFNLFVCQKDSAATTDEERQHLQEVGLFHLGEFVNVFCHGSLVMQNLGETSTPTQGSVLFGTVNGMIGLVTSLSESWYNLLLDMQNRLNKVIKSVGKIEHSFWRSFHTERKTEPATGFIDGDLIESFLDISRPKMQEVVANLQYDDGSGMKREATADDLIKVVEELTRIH
Outline: (§1)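 Flp-In T-REx HEK293 pools stably expressing C-terminal HiBiT-tagged IKZF1 or IKZF2 were induced overnight with 1 μg/ml doxycycline. Cells were then treated with serially diluted compound for 18-24 hr at 37 °C and read by Nano-Glo lytic luminescence. Data were normalized to 0.5% DMSO as POC; EC50 and Dmax (maximum degradation at highest concentration tested) reported.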

[2] = target: T2, IKZF2 (Homo sapiens, UniProt Q96SW2+Q9UKS7); experiment: HiBiT protein tagging assay, in vitro IKZF2 degradation (HEK293); format: cell-based
T2 construct: expressed in transfected cells
T2 sequence (Q9UKS7 1-500 isoform Q9UKS7-2): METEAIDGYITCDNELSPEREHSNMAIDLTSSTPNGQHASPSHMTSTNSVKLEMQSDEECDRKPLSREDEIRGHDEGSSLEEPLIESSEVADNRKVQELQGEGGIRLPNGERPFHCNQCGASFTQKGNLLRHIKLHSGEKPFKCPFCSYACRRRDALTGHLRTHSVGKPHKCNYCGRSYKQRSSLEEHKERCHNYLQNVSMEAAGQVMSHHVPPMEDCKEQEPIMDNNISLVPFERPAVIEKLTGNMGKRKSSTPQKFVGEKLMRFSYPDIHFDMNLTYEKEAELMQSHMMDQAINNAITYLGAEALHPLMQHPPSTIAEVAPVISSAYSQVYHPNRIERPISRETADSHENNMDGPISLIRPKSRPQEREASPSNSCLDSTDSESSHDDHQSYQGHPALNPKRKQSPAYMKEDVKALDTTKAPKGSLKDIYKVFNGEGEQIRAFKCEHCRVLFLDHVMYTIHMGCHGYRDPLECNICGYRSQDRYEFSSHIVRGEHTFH
T2 sequence (Q96SW2 whole entry): as the sequence (Q96SW2 whole entry) above
T2 sequence (Q16531 whole entry partner): as the sequence (Q16531 whole entry partner) above
Outline: as §1

[3] = HEK293, 18-24 hr incubation, normalized to DMSO control, read-out: IKZF1 EC50
[4] = HEK293, HiBiT assay, HEK293, 18-24 hr incubation, normalized to DMSO control; read-out: IKZF2 Dmax (maximum degradation at the highest concentration tested)
[5] = HiBiT assay, HEK293, 18-24 hr incubation, normalized to DMSO control; read-out: IKZF2 EC50
[6] = HEK293, 18-24 hr incubation, normalized to DMSO control

SMILES	DC50 [1, 3] [nM]	Dmax [2, 4] [%]	DC50 [2, 5] [nM]	Dmax [1, 6] [%]	DC50 ([1]; read-out: IKZF1 EC50, HEK293, 18-24 hr incubation, normalized to DMSO control) [nM]	DC50 ([2]; read-out: IKZF2 EC50; HiBiT assay, HEK293, 18-24 hr incubation, normalized to DMSO control) [nM]
C[C@@H]1[C@@H](NCc2ccc3c(c2)CN(C2CCC(=O)NC2=O)C3=O)C[C@H]2C[C@@H]1C2(C)C (some centres unmarked) [Example 134]	> 10000	89	111			
O=C1CCC(N2Cc3cc(CN[C@@H]4CCC[C@H]([C@@H](O)c5ccccc5)C4)ccc3C2=O)C(=O)N1 (some centres unmarked) [Example 135]	95	94	231	92		
O=C1CCC(N2Cc3cc(CN[C@@H]4CCC[C@H]([C@H](O)c5ccccc5)C4)ccc3C2=O)C(=O)N1 (some centres unmarked) [Example 136]	99	95	204	93		
O=C1CCC(N2Cc3cc(CN[C@@H]4CCC[C@H](Cc5ccccc5Cl)C4)ccc3C2=O)C(=O)N1 (some centres unmarked) [Example 137]	3	96	8	95		
C[C@@H]1CC[C@@H](NCc2ccc3c(c2)CN(C2CCC(=O)NC2=O)C3=O)CN1Cc1ccccc1 (stereo partly drawn) [Example 138, 3-(5-((((3R,6R)-1-benzyl-6-methylpiperidin-3-yl)amino)methyl)-1-oxoisoindolin-2-yl)piperidine-2,6-dione]	27	83	189	92		
C[C@@H]1[C@H]2C[C@@H](C[C@H]1NCc1ccc3c(c1)CN(C1CCC(=O)NC1=O)C3=O)C2(C)C (some centres unmarked) [Example 139]	> 1000	26	109			
CC1(C)CCC(NCc2ccc3c(c2)CN(C2CCC(=O)NC2=O)C3=O)CC1 (centres unmarked) [Example 140]	55	86	61	60		
O=C1CCC(N2Cc3cc(CNC45CCC(CC4)C5)ccc3C2=O)C(=O)N1 (centres unmarked) [Example 141]	121	93	37	32		
O=C1CCC(N2Cc3cc(CNC45CCC(CO)(CC4)C5)ccc3C2=O)C(=O)N1 (centres unmarked) [Example 142]	374	99	218	26		
O=C1CCC(N2Cc3cc(CNC45CCCC(O)(C4)C5)ccc3C2=O)C(=O)N1 (centres unmarked) [Example 143]	> 1000	66	243			
COC(=O)C1(C)CCCC(NCc2ccc3c(c2)CN(C2CCC(=O)NC2=O)C3=O)C1 (centres unmarked) [Example 144]	137	88	97	50		
O=C1CCC(N2Cc3cc(CN[C@@H]4CCCC[C@H]4OCc4ccccc4Cl)ccc3C2=O)C(=O)N1 (some centres unmarked) [Example 145]	246	92	78	31		
O=C1CCC(N2Cc3cc(CN[C@@H]4CCC[C@H](COCc5ccccc5)C4)ccc3C2=O)C(=O)N1 (some centres unmarked) [Example 146]	5	94	9	93		
CC1CCC(C)(NCc2ccc3c(c2)CN(C2CCC(=O)NC2=O)C3=O)CC1 (centres unmarked) [Example 147]	155	87	87	28		
CC[C@H]1CCCC[C@H]1NCc1ccc2c(c1)CN(C1CCC(=O)NC1=O)C2=O (some centres unmarked) [Example 148]	119	43	177	38		
CC[C@@H]1CCCC[C@H]1NCc1ccc2c(c1)CN(C1CCC(=O)NC1=O)C2=O (some centres unmarked) [Example 149]	> 1000	35	115			
O=C1CCC(N2Cc3cc(CNC4(C5CC5)CCCCC4)ccc3C2=O)C(=O)N1 (centres unmarked) [Example 150, 3-(5-(((1-cyclopropylcyclohexyl)amino)methyl)-1-oxoisoindolin-2-yl)piperidine-2,6-dione]	> 10000	47	445			
CC1(NCc2ccc3c(c2)CN(C2CCC(=O)NC2=O)C3=O)CCCC1 (centres unmarked) [Example 151, 3-(5-(((1-methylcyclopentyl)amino)methyl)-1-oxoisoindolin-2-yl)piperidine-2,6-dione]	172	81	151	26		
O=C1CCC(N2Cc3cc(CNC4(CCc5ccccc5)CCCCC4)ccc3C2=O)C(=O)N1 (centres unmarked) [Example 152, 3-(1-oxo-5-(((1-phenethylcyclohexyl)amino)methyl)isoindolin-2-yl)piperidine-2,6-dione]	> 1000	65	172			
O=C1CCC(N2Cc3cc(CNC4(c5ccc(F)cc5)CCCCC4)ccc3C2=O)C(=O)N1 (centres unmarked) [Example 153, 3-(5-(((1-(4-fluorophenyl)cyclohexyl)amino)methyl)-1-oxoisoindolin-2-yl)piperidine-2,6-dione]		36			> 1000	122
COCC1(NCc2ccc3c(c2)CN(C2CCC(=O)NC2=O)C3=O)CCCCC1 (centres unmarked) [Example 154, 3-(5-(((1-(methoxymethyl)cyclohexyl)amino)methyl)-1-oxoisoindolin-2-yl)piperidine-2,6-dione]	> 1000	47	293			
C[C@]1(NCc2ccc3c(c2)CN(C2CCC(=O)NC2=O)C3=O)CCCN(Cc2ccccc2)C1 (stereo partly drawn) [Example 155, 3-(5-((((S)-1-benzyl-3-methylpiperidin-3-yl)amino)methyl)-1-oxoisoindolin-2-yl)piperidine-2,6-dione]	122	87	106	61		
C[C@@]1(NCc2ccc3c(c2)CN(C2CCC(=O)NC2=O)C3=O)CCCN(Cc2ccccc2)C1 (stereo partly drawn) [Example 156, 3-(5-((((R)-1-benzyl-3-methylpiperidin-3-yl)amino)methyl)-1-oxoisoindolin-2-yl)piperidine-2,6-dione]	58	96	35	92		
O=C1CCC(N2Cc3cc(CN[C@H]4CCC[C@@H]4NCc4ccccc4)ccc3C2=O)C(=O)N1 (stereo partly drawn) [Example 157, 3-(5-((((1S,2S)-2-(benzylamino)cyclopentyl)amino)methyl)-1-oxoisoindolin-2-yl)piperidine-2,6-dione]	131	43	443	66		
COC[C@@H]1CCCC[C@@H]1NCc1ccc2c(c1)CN(C1CCC(=O)NC1=O)C2=O (stereo partly drawn) [Example 158, 3-(5-((((1S,2R)-2-(methoxymethyl)cyclohexyl)amino)methyl)-1-oxoisoindolin-2-yl)piperidine-2,6-dione]	90	93	46	85		
